Results from PubChem BioAssay (NCI).
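Following 48 hours of exposure in 96-well plates, responses at five concentrations were used to interpolate endpoints linearly. The concentration for full growth arrest is given as TGI.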

Assays:
Test in all cases: inhibition of tumour cell growth, NCI panel, 48 h
[1] = tested on: XF 498 CNS
[2] = tested on: HCT-116 colon
[3] = tested on: SK-OV-3 ovarian
[4] = tested on: DLD-1 colon
[5] = tested on: HL-60(TB) leukemia
[6] = tested on: UACC-62 melanoma
[7] = tested on: COLO 205 colon
[8] = tested on: MOLT-4 leukemia
[9] = tested on: DMS 273 small cell lung
[10] = tested on: HCC-2998 colon
[11] = tested on: 786-0 renal
[12] = tested on: CAKI-1 renal
[13] = tested on: SNB-78 CNS
[14] = tested on: SK-MEL-5 melanoma
[15] = tested on: SNB-75 CNS
[16] = tested on: MALME-3M melanoma
[17] = tested on: NCI-H23 lung
[18] = tested on: SK-MEL-28 melanoma
[19] = tested on: K-562 leukemia
[20] = tested on: TK-10 renal
[21] = tested on: OVCAR-5 ovarian
[22] = tested on: CCRF-CEM leukemia
[23] = tested on: IGROV1 ovarian
[24] = tested on: RPMI-8226 leukemia
[25] = tested on: HOP-62 NSCLC
[26] = tested on: SN12C renal
[27] = tested on: LXFL 529 NSCLC
[28] = tested on: SK-MEL-2 melanoma
[29] = tested on: A498 renal
[30] = tested on: OVCAR-4 ovarian
[31] = tested on: UO-31 renal
[32] = tested on: KM20L2 colon
[33] = tested on: M14 melanoma
[34] = tested on: SNB-19 CNS
[35] = tested on: KM12 colon
[36] = tested on: SF-268 CNS
[37] = tested on: LOX IMVI melanoma
[38] = tested on: UACC-257 melanoma
[39] = tested on: SF-295 CNS
[40] = tested on: SF-539 CNS
[41] = tested on: M19-MEL melanoma
[42] = tested on: OVCAR-8 ovarian
[43] = tested on: HCT-15 colon
[44] = tested on: NCI-H522 lung
[45] = tested on: HT29 colon
[46] = tested on: U251 CNS
[47] = tested on: SW-620 colon
[48] = tested on: DMS 114 small cell lung
[49] = tested on: A549 NSCLC
[50] = tested on: OVCAR-3 ovarian
[51] = tested on: EKVX NSCLC
[52] = tested on: HOP-18 NSCLC
[53] = tested on: RXF 393 renal
[54] = tested on: SR leukemia
[55] = tested on: HOP-92 NSCLC
[56] = tested on: ACHN renal
[57] = tested on: NCI-H226 lung
[58] = tested on: NCI-H460 lung

Measured: TGI

N#CCCN(c1ccc(/C=N/c2nc(-c3ccccc3)cs2)cc1)S(=O)(=O)c1ccccc1
93.5 µM: [15]
not listed: [52] | [53] | [54] | [55] | [56] | [57] | [58]
> 100 µM: all other assays above

OC[C@@H]1CC#C/C=C\C#CC[C@@H]1CO
6.99 µM: [1]
not listed: [6] | [9] | [15] | [22] | [26] | [27] | [29] | [32] | [36] | [37] | [38] | [44] | [47] | [49] | [54] | [55] | [56] | [57] | [58]
> 100 µM: all other assays above

COc1ccc(C(=O)c2c(C(C(=O)c3ccc(OC)cc3)C(=O)c3ccc(OC)cc3)n(C(=O)c3ccc(OC)cc3)c3ccccc23)cc1
not listed: [38] | [52]
> 100 µM: all other assays above
